Data reported in patent US12043632B2, “6-heteroaryloxy benzimidazoles and azabenzimidazoles as JAK2 inhibitors” (Ajax Therapeutics, Inc., priority 2020, dated 2024).

Target: T1, JAK2 (JH1domain-catalytic, Y1007F,Y1008F) kinase (Homo sapiens, UniProt O60674, Y1007F/Y1008F)
T1 construct: JAK2 (JH1domain-catalytic, Y1007F,Y1008F) kinase was expressed as N-terminal fusion; made in house; host or cells: transiently transfected HEK293 cells
Test: JAK2 JH1 Domain Binding Assay
Settings: qPCR readout

T1 sequence (O60674 849-1124 Y1007F/Y1008F limits assumed): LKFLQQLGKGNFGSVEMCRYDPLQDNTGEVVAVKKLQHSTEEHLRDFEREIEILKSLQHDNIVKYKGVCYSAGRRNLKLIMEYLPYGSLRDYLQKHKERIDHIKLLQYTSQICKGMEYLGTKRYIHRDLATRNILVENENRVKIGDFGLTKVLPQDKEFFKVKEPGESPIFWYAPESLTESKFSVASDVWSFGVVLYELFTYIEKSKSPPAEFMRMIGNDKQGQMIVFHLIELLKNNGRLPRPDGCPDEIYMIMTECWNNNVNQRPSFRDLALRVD

Row | Kd | SMILES
1 | 10 to 50 nM | Cc1cc2ncc(Oc3cnc4nc(Nc5cc(C(C)(C)C)n([C@@H]6CCOC6)n5)n(C)c4c3Cl)cn2n1 [Example I-5, (R)—N-(5-(tert-butyl)-1-(tetrahydrofuran-3-yl)-1H-pyrazol-3-yl)-7-chloro-1-methyl-6-((2-methylpyrazolo[1,5-a]pyrimidin-6-yl)oxy)-1H-imidazo[4,5-b]pyridin-2-amine]
2 | 10 to 50 nM | Cc1cc2ncc(Oc3cnc4nc(Nc5cc(C(C)(C)C)n([C@H]6CCOC6)n5)n(C)c4c3Cl)cn2n1 [Example I-6, (S)—N-(5-(tert-butyl)-1-(tetrahydrofuran-3-yl)-1H-pyrazol-3-yl)-7-chloro-1-methyl-6-((2-methylpyrazolo[1,5-a]pyrimidin-6-yl)oxy)-1H-imidazo[4,5-b]pyridin-2-amine]
3 | 10 to 50 nM | Cn1c(Nc2cc(C(F)(F)C(F)(F)F)n([C@@H]3CCOC3)n2)nc2ncc(Oc3cnc4ccnn4c3)c(Cl)c21 [Example I-7, (R)-7-chloro-1-methyl-N-(5-(perfluoroethyl)-1-(tetrahydrofuran-3-yl)-1H-pyrazol-3-yl)-6-(pyrazolo[1,5-a]pyrimidin-6-yloxy)-1H-imidazo[4,5-b]pyridin-2-amine]
4 | 10 to 50 nM | Cn1c(Nc2cc(C(F)(F)C(F)(F)F)n([C@H]3CCOC3)n2)nc2ncc(Oc3cnc4ccnn4c3)c(Cl)c21 [Example I-8, (S)-7-chloro-1-methyl-N-(5-(perfluoroethyl)-1-(tetrahydrofuran-3-yl)-1H-pyrazol-3-yl)-6-(pyrazolo[1,5-a]pyrimidin-6-yloxy)-1H-imidazo[4,5-b]pyridin-2-amine]
5 | 50 to 1000 nM | Cn1c(Nc2cc(C(C)(C)C)n([C@@H]3CCOC3)n2)nc2ncc(Oc3cnc4[nH]cc(C#N)c4c3)cc21 [Example I-9]
6 | 1000 to 5000 nM | Cn1c(Nc2cc(C(C)(C)C)n([C@H]3CCOC3)n2)nc2ncc(Oc3cnc4[nH]cc(C#N)c4c3)cc21 [Example I-10, (S)-5-((2-((5-(tert-butyl)-1-(tetrahydrofuran-3-yl)-1H-pyrazol-3-yl)amino)-1-methyl-1H-imidazo[4,5-b]pyridin-6-yl)oxy)-1H-pyrrolo[2,3-b]pyridine-3-carbonitrile]
7 | < 10 nM | COCc1c[nH]c2ncc(Oc3cnc4nc(Nc5cc(C(C)(C)C)n([C@@H]6CCOC6)n5)n(C)c4c3)cc12 [Example I-11]
8 | < 10 nM | COCc1c[nH]c2ncc(Oc3cnc4nc(Nc5cc(C(C)(C)C)n([C@H]6CCOC6)n5)n(C)c4c3)cc12 [Example I-12]
9 | 10 to 50 nM | Cn1c(Nc2cc(C(C)(C)C)n([C@H]3CCOC3)n2)nc2ncc(Oc3cnn4ccnc4c3)c(Cl)c21 [Example I-13, (S)—N-(5-(tert-butyl)-1-(tetrahydrofuran-3-yl)-1H-pyrazol-3-yl)-7-chloro-6-(imidazo[1,2-b]pyridazin-7-yloxy)-1-methyl-1H-imidazo[4,5-b]pyridin-2-amine]
10 | 10 to 50 nM | Cn1c(Nc2cc(C(C)(C)C)n([C@@H]3CCOC3)n2)nc2ncc(Oc3cnn4ccnc4c3)c(Cl)c21 [Example I-14, (R)—N-(5-(tert-butyl)-1-(tetrahydrofuran-3-yl)-1H-pyrazol-3-yl)-7-chloro-6-(imidazo[1,2-b]pyridazin-7-yloxy)-1-methyl-1H-imidazo[4,5-b]pyridin-2-amine]
11 | 50 to 1000 nM | Cn1c(Nc2cc(C(C)(C)C)n([C@@H]3CCOC3)n2)nc2ncc(Oc3cnn4cnnc4c3)c(Cl)c21 [Example I-15, (R)-6-([1,2,4]triazolo[4,3-b]pyridazin-7-yloxy)-N-(5-(tert-butyl)-1-(tetrahydrofuran-3-yl)-1H-pyrazol-3-yl)-7-chloro-1-methyl-1H-imidazo[4,5-b]pyridin-2-amine]
12 | 10 to 50 nM | Cn1c(Nc2cc(C(C)(C)C)n([C@H]3CCOC3)n2)nc2ncc(Oc3cnn4cnnc4c3)c(Cl)c21 [Example I-16, (S)-6-([1,2,4]triazolo[4,3-b]pyridazin-7-yloxy)-N-(5-(tert-butyl)-1-(tetrahydrofuran-3-yl)-1H-pyrazol-3-yl)-7-chloro-1-methyl-1H-imidazo[4,5-b]pyridin-2-amine]
13 | 10 to 50 nM | Cn1c(Nc2cc(C(C)(C)C#N)n([C@H]3CCOC3)n2)nc2ncc(Oc3cnc4ccnn4c3)c(Cl)c21 [Example I-17, (S)-2-(3-((7-chloro-1-methyl-6-(pyrazolo[1,5-a]pyrimidin-6-yloxy)-1H-imidazo[4,5-b]pyridin-2-yl)amino)-1-(tetrahydrofuran-3-yl)-1H-pyrazol-5-yl)-2-methylpropanenitrile]
14 | 10 to 50 nM | Cn1c(Nc2cc(C(C)(C)C#N)n([C@@H]3CCOC3)n2)nc2ncc(Oc3cnc4ccnn4c3)c(Cl)c21 [Example I-18, (R)-2-(3-((7-chloro-1-methyl-6-(pyrazolo[1,5-a]pyrimidin-6-yloxy)-1H-imidazo[4,5-b]pyridin-2-yl)amino)-1-(tetrahydrofuran-3-yl)-1H-pyrazol-5-yl)-2-methylpropanenitrile]
15 | 10 to 50 nM | CN1CC[C@H](n2nc(Nc3nc4ncc(Oc5cnc6sccc6c5)c(Cl)c4n3C)cc2C(C)(C)C)C1 [Example I-19, (S)—N-(5-(tert-butyl)-1-(1-methylpyrrolidin-3-yl)-1H-pyrazol-3-yl)-7-chloro-1-methyl-6-(thieno[2,3-b]pyridin-5-yloxy)-1H-imidazo[4,5-b]pyridin-2-amine]
16 | 50 to 1000 nM | CN1CC[C@@H](n2nc(Nc3nc4ncc(Oc5cnc6sccc6c5)c(Cl)c4n3C)cc2C(C)(C)C)C1 [Example I-20, (R)—N-(5-(tert-butyl)-1-(1-methylpyrrolidin-3-yl)-1H-pyrazol-3-yl)-7-chloro-1-methyl-6-(thieno[2,3-b]pyridin-5-yloxy)-1H-imidazo[4,5-b]pyridin-2-amine]
17 | < 10 nM | Cn1c(Nc2cc(C(C)(C)C)n([C@@H]3CCOC3)n2)nc2ncc(Oc3cnn4ccncc34)c(Cl)c21 [Example I-21, (R)—N-(5-(tert-butyl)-1-(tetrahydrofuran-3-yl)-1H-pyrazol-3-yl)-7-chloro-1-methyl-6-(pyrazolo[1,5-a]pyrazin-3-yloxy)-1H-imidazo[4,5-b]pyridin-2-amine]
18 | < 10 nM | Cn1c(Nc2cc(C(C)(C)C)n([C@H]3CCOC3)n2)nc2ncc(Oc3cnn4ccncc34)c(Cl)c21 [Example I-22, (S)—N-(5-(tert-butyl)-1-(tetrahydrofuran-3-yl)-1H-pyrazol-3-yl)-7-chloro-1-methyl-6-(pyrazolo[1,5-a]pyrazin-3-yloxy)-1H-imidazo[4,5-b]pyridin-2-amine]
19 | 10 to 50 nM | Cn1c(Nc2cc(C(C)(C)C)n([C@H]3CCN(CCF)C3)n2)nc2ncc(Oc3cnn4ccnc4c3)c(Cl)c21 [Example I-25, (S)—N-(5-(tert-butyl)-1-(1-(2-fluoroethyl)pyrrolidin-3-yl)-1H-pyrazol-3-yl)-7-chloro-6-(imidazo[1,2-b]pyridazin-7-yloxy)-1-methyl-1H-imidazo[4,5-b]pyridin-2-amine]
20 | 50 to 1000 nM | Cn1c(Nc2cc(C(C)(C)C)n([C@@H]3CCN(CCF)C3)n2)nc2ncc(Oc3cnn4ccnc4c3)c(Cl)c21 [Example I-26, (R)—N-(5-(tert-butyl)-1-(1-(2-fluoroethyl)pyrrolidin-3-yl)-1H-pyrazol-3-yl)-7-chloro-6-(imidazo[1,2-b]pyridazin-7-yloxy)-1-methyl-1H-imidazo[4,5-b]pyridin-2-amine]
21 | 10 to 50 nM | CN1CC[C@@H](n2nc(Nc3nc4ncc(Oc5cnc6scnc6c5)c(Cl)c4n3C)cc2C(C)(C)C)C1 [Example I-27, (R)—N-(5-(tert-butyl)-1-(1-methylpyrrolidin-3-yl)-1H-pyrazol-3-yl)-7-chloro-1-methyl-6-(thiazolo[5,4-b]pyridin-6-yloxy)-1H-imidazo[4,5-b]pyridin-2-amine]
22 | 10 to 50 nM | CN1CC[C@H](n2nc(Nc3nc4ncc(Oc5cnc6scnc6c5)c(Cl)c4n3C)cc2C(C)(C)C)C1 [Example I-28, (S)—N-(5-(tert-butyl)-1-(1-methylpyrrolidin-3-yl)-1H-pyrazol-3-yl)-7-chloro-1-methyl-6-(thiazolo[5,4-b]pyridin-6-yloxy)-1H-imidazo[4,5-b]pyridin-2-amine]
23 | < 10 nM | Cn1c(Nc2cc(C(C)(C)C)n([C@H]3CCN(CCF)C3)n2)nc2ncc(Oc3cnn4ccncc34)c(Cl)c21 [Example I-29, (S)—N-(5-(tert-butyl)-1-(1-(2-fluoroethyl)pyrrolidin-3-yl)-1H-pyrazol-3-yl)-7-chloro-1-methyl-6-(pyrazolo[1,5-a]pyrazin-3-yloxy)-1H-imidazo[4,5-b]pyridin-2-amine]
24 | < 10 nM | Cn1c(Nc2cc(C(C)(C)C)n([C@@H]3CCN(CCF)C3)n2)nc2ncc(Oc3cnn4ccncc34)c(Cl)c21 [Example I-30, (R)—N-(5-(tert-butyl)-1-(1-(2-fluoroethyl)pyrrolidin-3-yl)-1H-pyrazol-3-yl)-7-chloro-1-methyl-6-(pyrazolo[1,5-a]pyrazin-3-yloxy)-1H-imidazo[4,5-b]pyridin-2-amine]
25 | < 10 nM | CN1CC[C@H](n2nc(Nc3nc4ncc(Oc5cnn6ccncc56)c(Cl)c4n3C)cc2C(C)(C)C)C1 [Example I-31, (S)—N-(5-(tert-butyl)-1-(1-methylpyrrolidin-3-yl)-1H-pyrazol-3-yl)-7-chloro-1-methyl-6-(pyrazolo[1,5-a]pyrazin-3-yloxy)-1H-imidazo[4,5-b]pyridin-2-amine]
26 | < 10 nM | CN1CC[C@@H](n2nc(Nc3nc4ncc(Oc5cnn6ccncc56)c(Cl)c4n3C)cc2C(C)(C)C)C1 [Example I-32, (R)—N-(5-(tert-butyl)-1-(1-methylpyrrolidin-3-yl)-1H-pyrazol-3-yl)-7-chloro-1-methyl-6-(pyrazolo[1,5-a]pyrazin-3-yloxy)-1H-imidazo[4,5-b]pyridin-2-amine]
27 | 10 to 50 nM | Cn1c(Nc2cc(C(C)(C)C)n(C3CC4(COC4)C3)n2)nc2ncc(Oc3cnn4ccnc4c3)c(Cl)c21 [Example I-33, N-(5-(tert-butyl)-1-(2-oxaspiro[3.3]heptan-6-yl)-1H-pyrazol-3-yl)-7-chloro-6-(imidazo[1,2-b]pyridazin-7-yloxy)-1-methyl-1H-imidazo[4,5-b]pyridin-2-amine]
28 | < 10 nM | Cn1c(Nc2cc(C(C)(C)C)n(CC(F)F)n2)nc2ncc(Oc3cnn4ccncc34)c(Cl)c21 [Example I-34, N-(5-(tert-butyl)-1-(2,2-difluoroethyl)-1H-pyrazol-3-yl)-7-chloro-1-methyl-6-(pyrazolo[1,5-a]pyrazin-3-yloxy)-1H-imidazo[4,5-b]pyridin-2-amine]
